From patent US9309242B2, “Substituted pyrido[2,3-b]pyrazines as FGFR kinase inhibitors” (priority 2011, dated 2016)

Columns and labels:
FGFR1 (h) = FGFR1 (h) (Homo sapiens, UniProt P11362); test: FGFR1 (enzymatic assay), TR-FRET; format: biochemical; conditions: read-out: FGFR 1 pIC50 (converted)
FGFR2 (h) = FGFR2 (h) (Homo sapiens, UniProt P21802); test: FGFR2 (enzymatic assay), TR-FRET; format: biochemical; conditions: enzymatic assay; read-out: FGFR 2 pIC50 (converted)
In short: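 Human FGFR2 (150 ng/ml) was incubated with 500 nM Btn-Flt3 substrate and 0.4 μM ATP in 50 mM HEPES pH 7.5, 6 mM MnCl2, 1 mM DTT, 0.1 mM Na3VO4, 0.01% Triton-X-100. Compound was present at 1% DMSO final.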

FGFR3 (h) = FGFR3 (h) (Homo sapiens, UniProt P22607); test: FGFR3 (enzymatic assay), TR-FRET; format: biochemical; conditions: read-out: FGFR 3 pIC50 (converted)
Chain of FGFR3 (h) (P22607 23-806): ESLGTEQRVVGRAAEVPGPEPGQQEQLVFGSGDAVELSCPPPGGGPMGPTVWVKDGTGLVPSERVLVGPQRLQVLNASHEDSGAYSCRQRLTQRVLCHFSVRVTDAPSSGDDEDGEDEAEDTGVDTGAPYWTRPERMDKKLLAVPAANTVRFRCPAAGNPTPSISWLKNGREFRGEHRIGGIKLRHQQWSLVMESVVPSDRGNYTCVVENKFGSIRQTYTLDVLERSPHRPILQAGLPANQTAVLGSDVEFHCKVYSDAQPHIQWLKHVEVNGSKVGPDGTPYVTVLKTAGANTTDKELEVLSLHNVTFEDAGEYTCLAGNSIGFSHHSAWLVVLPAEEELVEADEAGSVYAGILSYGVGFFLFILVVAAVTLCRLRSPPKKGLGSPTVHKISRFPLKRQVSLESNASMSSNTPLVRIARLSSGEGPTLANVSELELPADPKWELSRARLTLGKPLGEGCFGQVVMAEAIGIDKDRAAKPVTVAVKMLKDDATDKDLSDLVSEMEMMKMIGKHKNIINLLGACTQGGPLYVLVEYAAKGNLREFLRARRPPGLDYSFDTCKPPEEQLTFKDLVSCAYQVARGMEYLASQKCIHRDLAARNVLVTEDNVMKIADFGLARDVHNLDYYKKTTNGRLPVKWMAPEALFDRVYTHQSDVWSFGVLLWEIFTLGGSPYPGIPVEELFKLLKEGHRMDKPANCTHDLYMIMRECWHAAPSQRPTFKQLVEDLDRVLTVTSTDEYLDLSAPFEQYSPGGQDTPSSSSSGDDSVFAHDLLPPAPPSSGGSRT
Excerpt: Time-Resolved Fluorescence Resonance Energy Transfer (TR-FRET) signal (ex340 nm.

[1] = biological target: T1, Ba/F3-FGFR1-transfected cells (Homo sapiens, UniProt P11362); test: Ba/F3-FGFR1 (minus IL3) cellular proliferation assay, Alamar Blue; format: cell-based
T1 construct: BAF3-FGFR1 (MIN IL3) pIC50; other: minus IL3
In short: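 Ba/F3-FGFR1 cells, 20000/well, RPMI-1640 + 10% FBS + 2 mM L-Gln; compound in DMSO; 24 h, 37 °C, 5% CO2; Alamar Blue 4 h; RFU ex 540/em 590.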

[2] = system: Ba/F3-FGFR1-transfected cells; test: Ba/F3-FGFR1 (plus IL3) cellular proliferation assay, counterscreen with 10 ng/ml murine IL3; format: cell-based; conditions: plus IL3 (10 ng/ml murine IL3, counterscreen); read-out: BAF3-FGFR1 (PLUS IL3) pIC50 (converted)
In short: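 Ba/F3-FGFR1 cells (20000/well) in RPMI-1640 with 10% FBS exposed to compound for 24 h at 37° C., 5% CO2, then Alamar Blue (resazurin) added for 4 h; fluorescence read at ex 540/em 590 nm. Counterscreen run identically with 10 ng/ml murine IL3.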

[3] = biological target: T2, Ba/F3-FGFR3-transfected cells (Homo sapiens, UniProt P22607); test: Ba/F3-FGFR3 (minus IL3) cellular proliferation assay, Alamar Blue; format: cell-based
T2 construct: BAF3-FGFR3 (MIN IL3) pIC50; other: minus IL3
T2 sequence (P22607 whole entry, change not shown): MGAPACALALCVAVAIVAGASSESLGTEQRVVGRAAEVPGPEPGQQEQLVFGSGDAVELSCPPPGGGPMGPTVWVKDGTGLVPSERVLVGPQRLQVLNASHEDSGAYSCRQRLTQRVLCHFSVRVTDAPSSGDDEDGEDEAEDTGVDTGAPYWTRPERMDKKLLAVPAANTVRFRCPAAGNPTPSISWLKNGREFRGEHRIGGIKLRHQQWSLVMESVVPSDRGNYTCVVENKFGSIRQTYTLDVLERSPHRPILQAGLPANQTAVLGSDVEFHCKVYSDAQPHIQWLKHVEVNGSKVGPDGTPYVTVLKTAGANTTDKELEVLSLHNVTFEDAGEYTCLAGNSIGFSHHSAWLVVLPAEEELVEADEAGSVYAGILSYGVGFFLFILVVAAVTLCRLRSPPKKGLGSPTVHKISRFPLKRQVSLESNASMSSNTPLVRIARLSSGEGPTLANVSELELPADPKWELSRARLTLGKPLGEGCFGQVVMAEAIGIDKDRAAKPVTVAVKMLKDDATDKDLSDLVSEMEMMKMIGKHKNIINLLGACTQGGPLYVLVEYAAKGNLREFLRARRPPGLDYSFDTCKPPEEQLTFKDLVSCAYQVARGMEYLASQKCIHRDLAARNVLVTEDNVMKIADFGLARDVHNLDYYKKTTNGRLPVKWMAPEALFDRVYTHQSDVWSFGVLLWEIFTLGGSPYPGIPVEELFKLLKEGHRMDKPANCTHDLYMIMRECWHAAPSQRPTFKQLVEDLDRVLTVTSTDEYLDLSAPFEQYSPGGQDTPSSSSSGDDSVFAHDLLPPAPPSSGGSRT
In short: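 FGFR3-Ba/F3, 20000 cells/well, RPMI-1640 + 10% FBS, no phenol red; cpd in DMSO; 24 h, 37° C/5% CO2. Alamar Blue 4 h, RFU ex540/em590. Counterscreen: + murine IL3 10 ng/ml.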

[4] = biological target: T3, Ba/F3-KDR-transfected cells (Homo sapiens, UniProt P35968); test: Ba/F3-KDR (minus IL3) cellular proliferation assay, Alamar Blue; format: cell-based
T3 construct: BAF3-KDR (MIN IL3) pIC50; other: minus IL3
T3 sequence (P35968 whole entry, change not shown): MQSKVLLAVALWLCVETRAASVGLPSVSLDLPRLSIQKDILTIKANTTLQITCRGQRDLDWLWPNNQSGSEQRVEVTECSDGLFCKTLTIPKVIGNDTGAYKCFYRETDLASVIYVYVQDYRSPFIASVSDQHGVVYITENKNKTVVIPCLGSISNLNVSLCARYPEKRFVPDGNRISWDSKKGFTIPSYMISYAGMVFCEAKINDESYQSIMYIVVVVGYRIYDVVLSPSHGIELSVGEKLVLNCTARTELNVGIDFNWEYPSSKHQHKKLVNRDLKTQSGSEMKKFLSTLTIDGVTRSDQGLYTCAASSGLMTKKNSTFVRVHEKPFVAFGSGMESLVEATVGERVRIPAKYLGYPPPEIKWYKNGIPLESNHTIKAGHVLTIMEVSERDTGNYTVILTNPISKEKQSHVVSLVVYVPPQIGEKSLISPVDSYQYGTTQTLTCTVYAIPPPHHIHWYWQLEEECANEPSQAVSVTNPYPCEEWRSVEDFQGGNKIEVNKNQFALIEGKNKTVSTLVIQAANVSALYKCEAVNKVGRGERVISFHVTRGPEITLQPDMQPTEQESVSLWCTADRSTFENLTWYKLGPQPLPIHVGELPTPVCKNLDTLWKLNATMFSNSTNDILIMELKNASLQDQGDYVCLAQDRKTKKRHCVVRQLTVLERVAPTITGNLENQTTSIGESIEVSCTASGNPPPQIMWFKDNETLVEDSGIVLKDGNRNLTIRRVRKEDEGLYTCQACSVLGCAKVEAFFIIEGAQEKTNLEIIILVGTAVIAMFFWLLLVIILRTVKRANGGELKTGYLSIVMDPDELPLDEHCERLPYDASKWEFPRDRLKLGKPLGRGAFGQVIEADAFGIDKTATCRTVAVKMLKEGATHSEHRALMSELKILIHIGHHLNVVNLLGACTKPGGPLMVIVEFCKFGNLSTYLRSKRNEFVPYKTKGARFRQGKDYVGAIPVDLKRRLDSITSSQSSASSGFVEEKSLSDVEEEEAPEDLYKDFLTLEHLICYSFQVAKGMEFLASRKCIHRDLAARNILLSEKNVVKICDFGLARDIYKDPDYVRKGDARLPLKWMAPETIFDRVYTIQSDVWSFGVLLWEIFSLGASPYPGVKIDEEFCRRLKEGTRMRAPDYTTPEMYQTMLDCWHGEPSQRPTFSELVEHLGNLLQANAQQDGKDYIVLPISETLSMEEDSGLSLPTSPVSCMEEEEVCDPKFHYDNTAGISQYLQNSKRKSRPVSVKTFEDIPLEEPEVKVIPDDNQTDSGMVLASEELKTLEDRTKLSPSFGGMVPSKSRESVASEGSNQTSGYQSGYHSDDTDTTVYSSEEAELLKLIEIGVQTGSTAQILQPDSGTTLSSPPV
In short: (§1)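 20000 cells/well, RPMI-1640 + 10% FBS + 2 mM L-Gln; compound 24 h, 37° C/5% CO2; Alamar Blue 4 h; RFU ex540/em590.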

[5] = system: Ba/F3-KDR-transfected cells; test: Ba/F3-KDR (plus IL3) cellular proliferation assay, counterscreen with 10 ng/ml murine IL3; format: cell-based; conditions: plus IL3 (10 ng/ml murine IL3, counterscreen); read-out: BAF3-KDR (PLUS IL3) pIC50 (converted)
In short: as §1

[6] = biological target: Ba/F3-FGFR4-transfected cells (Homo sapiens, UniProt P22455); test: Ba/F3-FGFR4 cellular proliferation assay, Alamar Blue; format: cell-based
Chain of Ba/F3-FGFR4-transfected cells (P22455 whole entry, change not shown): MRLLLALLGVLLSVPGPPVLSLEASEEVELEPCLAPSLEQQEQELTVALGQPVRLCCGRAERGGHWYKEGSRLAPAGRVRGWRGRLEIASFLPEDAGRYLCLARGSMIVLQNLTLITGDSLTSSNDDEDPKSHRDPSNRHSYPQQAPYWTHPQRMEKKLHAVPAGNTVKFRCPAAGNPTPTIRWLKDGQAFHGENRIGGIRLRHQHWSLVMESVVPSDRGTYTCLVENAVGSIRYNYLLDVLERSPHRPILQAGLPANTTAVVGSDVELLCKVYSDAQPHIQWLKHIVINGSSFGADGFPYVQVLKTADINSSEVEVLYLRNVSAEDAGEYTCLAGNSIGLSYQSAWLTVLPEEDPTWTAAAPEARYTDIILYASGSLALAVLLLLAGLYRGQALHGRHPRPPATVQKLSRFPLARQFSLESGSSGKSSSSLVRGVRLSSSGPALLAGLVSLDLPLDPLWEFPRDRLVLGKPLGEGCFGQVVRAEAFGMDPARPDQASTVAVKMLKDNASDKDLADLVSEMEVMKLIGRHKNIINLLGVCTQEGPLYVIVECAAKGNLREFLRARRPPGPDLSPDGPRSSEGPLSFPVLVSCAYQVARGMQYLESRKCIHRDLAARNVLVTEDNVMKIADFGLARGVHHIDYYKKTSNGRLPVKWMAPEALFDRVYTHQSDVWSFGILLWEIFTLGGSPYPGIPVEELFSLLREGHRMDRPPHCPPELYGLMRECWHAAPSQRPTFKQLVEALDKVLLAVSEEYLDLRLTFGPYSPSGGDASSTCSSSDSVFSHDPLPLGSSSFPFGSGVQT
In short: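 20000 cells/well, RPMI-1640 (phenol red free) + 10% FBS + 2 mM L-Gln; cpd from DMSO; 24 h, 37° C, 5% CO2; Alamar Blue 4 h; RFU ex 540/em 590 nm.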

Chain of FGFR1 (h) (P11362 22-822): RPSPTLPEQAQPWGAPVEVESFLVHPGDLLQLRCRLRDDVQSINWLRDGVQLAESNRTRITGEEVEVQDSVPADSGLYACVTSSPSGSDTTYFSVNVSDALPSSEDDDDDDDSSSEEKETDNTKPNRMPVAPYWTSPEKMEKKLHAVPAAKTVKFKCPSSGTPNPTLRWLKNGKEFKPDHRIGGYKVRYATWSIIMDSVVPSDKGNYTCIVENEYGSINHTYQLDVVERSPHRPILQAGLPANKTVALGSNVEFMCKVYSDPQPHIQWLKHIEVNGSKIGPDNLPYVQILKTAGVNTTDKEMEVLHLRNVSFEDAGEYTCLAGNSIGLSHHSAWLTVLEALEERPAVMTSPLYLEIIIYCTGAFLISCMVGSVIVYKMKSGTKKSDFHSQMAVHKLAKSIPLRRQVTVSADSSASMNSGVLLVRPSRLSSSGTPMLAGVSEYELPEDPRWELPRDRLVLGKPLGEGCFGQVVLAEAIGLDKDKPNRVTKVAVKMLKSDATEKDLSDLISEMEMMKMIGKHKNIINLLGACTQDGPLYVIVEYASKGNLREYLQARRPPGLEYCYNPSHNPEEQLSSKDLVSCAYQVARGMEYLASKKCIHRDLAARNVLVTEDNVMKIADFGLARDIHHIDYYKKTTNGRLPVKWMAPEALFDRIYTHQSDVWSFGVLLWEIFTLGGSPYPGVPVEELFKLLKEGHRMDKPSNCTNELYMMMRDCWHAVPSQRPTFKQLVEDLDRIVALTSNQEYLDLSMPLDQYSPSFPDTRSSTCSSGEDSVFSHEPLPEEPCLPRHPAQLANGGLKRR

SMILES | IC50 (FGFR1 (h)) | IC50 (FGFR2 (h)) | IC50 (FGFR3 (h)) | BAF3-FGFR1 (MIN IL3) pIC50 [1] | IC50 [2] | BAF3-FGFR3 (MIN IL3) pIC50 [3] | BAF3-KDR (MIN IL3) pIC50 [4] | IC50 [5] | BAF3-FGFR4 pIC50 [6]
COc1cc(/N=c2\ccc3ncc(-c4cnn(C)c4)nc3n2CC2CCC(=O)N2C)c(F)c(OC)c1 (stereo not drawn) [Compound 158] | 1.74 nM | 1.86 nM | 1.29 nM | 7.18 | > 10000 nM | 7.20 | 6.16 | > 10000 nM | 6.78
COc1ccc(Cl)c(N(CC2CCC(=O)N2)c2ccc3ncc(-c4cnn(C)c4)nc3n2)c1Cl (single isomer, unassigned) [Compound 90] | 166 nM | 129 nM | 126 nM | 5.04 | > 10000 nM | 5.19 | <5 | > 10000 nM | <5
COc1cc(OC)c(F)c(N(Cc2cc(C)on2)c2ccc3ncc(-c4cnn(C)c4)nc3n2)c1 [Compound 180] | 1.1 nM | 1.62 nM | 1.07 nM | 7.43 | > 10000 nM | 7.36 | 5.58 | > 10000 nM | 7.10
COc1cc(OC)c(F)c(/N=c2\ccc3ncc(-c4cnn(C)c4)nc3n2CC2CCOC2)c1F (stereo not drawn) [Compound 154] | 0.661 nM | 1.05 nM | 0.676 nM | 7.71 | > 10000 nM | 7.59 | 6.43 | > 10000 nM | ~7.6
COc1cc(OC)cc(N(Cc2ncc[nH]2)c2ccc3ncc(-c4cccnc4)nc3n2)c1 [Compound 182] | 1.7 nM | 2.04 nM | 1.15 nM | 7.60 | > 10000 nM | ~7.76 | 5.48 | > 10000 nM | 7.17
COc1cc(OC)cc(N(CCO)c2ccc3ncc(-c4ccncc4)nc3n2)c1 [Compound 213] | 4.27 nM | 5.62 nM | 3.8 nM | 6.57 | > 10000 nM | ~6.7 | 5.01 | > 10000 nM | 6.15
COc1cc(OC)cc(N(Cc2ncn(CCO)n2)c2ccc3ncc(-c4cnn(C)c4)nc3n2)c1 [Compound 205] | 3.89 nM | 5.13 nM | 14.5 nM | 6.31 | > 10000 nM | 6.20 | 5.45 | > 10000 nM | 5.62
COc1cc(OC)c(F)c(N(CC2COC2)c2ccc3ncc(-c4cnn(C)c4)nc3n2)c1 [Compound 144] | 3.89 nM | 2.82 nM | 1.74 nM | 6.44 | > 10000 nM | 6.33 | 5.19 | > 10000 nM | 6.13
COc1cc(OC)c(F)c(N(CCN(C2COC2)C2COC2)c2ccc3ncc(-c4cnn(C)c4)nc3n2)c1F (single isomer, unassigned) [Compound 163] | 0.977 nM | 1.91 nM | 2.63 nM | 7.82 | > 10000 nM | 7.34 | 6.21 | > 10000 nM | 7.32
COc1cc(OC)c(F)c(N(Cc2ncc[nH]2)c2ccc3ncc(N4CCOCC4)nc3n2)c1F [Compound 215] | 0.741 nM | 2.09 nM | ~1.26 nM | 8.25 | > 10000 nM | 8.18 | 5.91 | > 10000 nM | 7.54
COc1cc(OC)c(F)c(N(CC2CCC(=O)N2CCO)c2ccc3ncc(-c4cnn(C)c4)nc3n2)c1 (single isomer, unassigned) [Compound 218] | 3.24 nM | 5.5 nM | 4.17 nM | 7.51 | > 10000 nM | ~7.64 | 5.64 | > 10000 nM | 6.99
COc1cc(OC)c(F)c(N(Cc2n[nH]c(=O)o2)c2ccc3ncc(-c4cnn(C)c4)nc3n2)c1 [Compound 284] | 1.58 nM | 2.14 nM | 1.05 nM | 6.37 | > 10000 nM | 6.42 | <5 | > 10000 nM | 6.01
COc1cc(/N=c2\ccc3ncc(-c4cnn(C)c4)nc3n2Cc2cc(C)no2)c(F)c(OC)c1 [Compound 184] | 0.977 nM | 2.19 nM | 1.35 nM | ~8.34 | > 10000 nM | ~8.15 | 6.71 | > 10000 nM | 8.03
COc1cc(/N=c2\ccc3ncc(-c4cnn(C)c4)nc3n2CC2CCOC2)c(F)c(OC)c1 (single isomer, unassigned) [Compound 169] | ~0.933 nM | 1.62 nM | 1.02 nM | 7.68 | > 10000 nM | 7.44 | 6.40 | > 10000 nM | 7.20
